Laboratory results reported in ChEMBL document CHEMBL4825702, “5-Aminonaphthalene derivatives as selective nonnucleoside nuclear receptor binding SET domain-protein 2 (NSD2) inhibitors for the treatment of multiple myeloma” (Eur J Med Chem, 2021).

Target: Histone-lysine N-methyltransferase NSD3 (Homo sapiens, UniProt Q9BZ95)
Assay: Inhibition of human NSD3-SET using histone H3.1 as substrate incubated for 1 hr by Western blot analysis

Histone-lysine N-methyltransferase NSD3, sequence (Q9BZ95 whole entry): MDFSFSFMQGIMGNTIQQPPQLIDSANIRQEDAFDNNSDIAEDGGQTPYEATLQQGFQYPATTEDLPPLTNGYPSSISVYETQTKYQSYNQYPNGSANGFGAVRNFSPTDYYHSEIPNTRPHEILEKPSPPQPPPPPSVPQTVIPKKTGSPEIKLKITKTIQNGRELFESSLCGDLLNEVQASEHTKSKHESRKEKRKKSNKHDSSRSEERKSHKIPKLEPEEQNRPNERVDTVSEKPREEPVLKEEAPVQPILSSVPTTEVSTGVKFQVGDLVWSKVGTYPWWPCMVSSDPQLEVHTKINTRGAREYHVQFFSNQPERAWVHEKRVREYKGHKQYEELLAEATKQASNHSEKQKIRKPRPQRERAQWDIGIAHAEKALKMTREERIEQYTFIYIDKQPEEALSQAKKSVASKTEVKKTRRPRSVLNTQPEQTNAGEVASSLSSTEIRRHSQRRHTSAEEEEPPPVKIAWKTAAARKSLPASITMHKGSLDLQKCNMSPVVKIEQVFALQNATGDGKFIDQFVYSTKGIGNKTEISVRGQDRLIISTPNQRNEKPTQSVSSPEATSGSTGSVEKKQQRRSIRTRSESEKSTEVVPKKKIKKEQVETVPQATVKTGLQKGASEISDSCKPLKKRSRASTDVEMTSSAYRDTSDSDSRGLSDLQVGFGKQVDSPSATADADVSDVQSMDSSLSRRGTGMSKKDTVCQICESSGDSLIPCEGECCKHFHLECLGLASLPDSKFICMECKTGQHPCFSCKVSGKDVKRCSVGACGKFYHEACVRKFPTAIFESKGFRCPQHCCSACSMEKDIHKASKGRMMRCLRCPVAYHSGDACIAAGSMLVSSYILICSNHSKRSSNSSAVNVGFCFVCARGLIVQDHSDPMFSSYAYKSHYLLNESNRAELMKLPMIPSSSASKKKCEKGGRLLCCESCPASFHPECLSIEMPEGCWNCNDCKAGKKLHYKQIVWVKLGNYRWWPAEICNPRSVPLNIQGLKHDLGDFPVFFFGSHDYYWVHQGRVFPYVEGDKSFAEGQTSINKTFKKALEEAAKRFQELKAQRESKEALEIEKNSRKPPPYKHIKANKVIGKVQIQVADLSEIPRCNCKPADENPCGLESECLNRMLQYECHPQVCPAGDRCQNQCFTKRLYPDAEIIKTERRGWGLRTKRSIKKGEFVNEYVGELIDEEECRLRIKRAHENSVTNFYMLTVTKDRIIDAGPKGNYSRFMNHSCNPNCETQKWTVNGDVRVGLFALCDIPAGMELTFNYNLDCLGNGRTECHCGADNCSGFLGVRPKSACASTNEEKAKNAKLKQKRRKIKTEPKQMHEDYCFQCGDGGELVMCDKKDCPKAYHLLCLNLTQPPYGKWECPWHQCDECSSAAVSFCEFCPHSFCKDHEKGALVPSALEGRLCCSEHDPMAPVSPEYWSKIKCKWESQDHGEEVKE

Row | IC50 | Compound
1 | 95 µM | COc1cc2nc(N3CCN(C)CC3)nc(NC3CCN(Cc4ccccc4)CC3)c2cc1OC

Target: T1, Histone-lysine N-methyltransferase NSD2 (Homo sapiens, UniProt O96028)
T1 sequence (O96028 whole entry): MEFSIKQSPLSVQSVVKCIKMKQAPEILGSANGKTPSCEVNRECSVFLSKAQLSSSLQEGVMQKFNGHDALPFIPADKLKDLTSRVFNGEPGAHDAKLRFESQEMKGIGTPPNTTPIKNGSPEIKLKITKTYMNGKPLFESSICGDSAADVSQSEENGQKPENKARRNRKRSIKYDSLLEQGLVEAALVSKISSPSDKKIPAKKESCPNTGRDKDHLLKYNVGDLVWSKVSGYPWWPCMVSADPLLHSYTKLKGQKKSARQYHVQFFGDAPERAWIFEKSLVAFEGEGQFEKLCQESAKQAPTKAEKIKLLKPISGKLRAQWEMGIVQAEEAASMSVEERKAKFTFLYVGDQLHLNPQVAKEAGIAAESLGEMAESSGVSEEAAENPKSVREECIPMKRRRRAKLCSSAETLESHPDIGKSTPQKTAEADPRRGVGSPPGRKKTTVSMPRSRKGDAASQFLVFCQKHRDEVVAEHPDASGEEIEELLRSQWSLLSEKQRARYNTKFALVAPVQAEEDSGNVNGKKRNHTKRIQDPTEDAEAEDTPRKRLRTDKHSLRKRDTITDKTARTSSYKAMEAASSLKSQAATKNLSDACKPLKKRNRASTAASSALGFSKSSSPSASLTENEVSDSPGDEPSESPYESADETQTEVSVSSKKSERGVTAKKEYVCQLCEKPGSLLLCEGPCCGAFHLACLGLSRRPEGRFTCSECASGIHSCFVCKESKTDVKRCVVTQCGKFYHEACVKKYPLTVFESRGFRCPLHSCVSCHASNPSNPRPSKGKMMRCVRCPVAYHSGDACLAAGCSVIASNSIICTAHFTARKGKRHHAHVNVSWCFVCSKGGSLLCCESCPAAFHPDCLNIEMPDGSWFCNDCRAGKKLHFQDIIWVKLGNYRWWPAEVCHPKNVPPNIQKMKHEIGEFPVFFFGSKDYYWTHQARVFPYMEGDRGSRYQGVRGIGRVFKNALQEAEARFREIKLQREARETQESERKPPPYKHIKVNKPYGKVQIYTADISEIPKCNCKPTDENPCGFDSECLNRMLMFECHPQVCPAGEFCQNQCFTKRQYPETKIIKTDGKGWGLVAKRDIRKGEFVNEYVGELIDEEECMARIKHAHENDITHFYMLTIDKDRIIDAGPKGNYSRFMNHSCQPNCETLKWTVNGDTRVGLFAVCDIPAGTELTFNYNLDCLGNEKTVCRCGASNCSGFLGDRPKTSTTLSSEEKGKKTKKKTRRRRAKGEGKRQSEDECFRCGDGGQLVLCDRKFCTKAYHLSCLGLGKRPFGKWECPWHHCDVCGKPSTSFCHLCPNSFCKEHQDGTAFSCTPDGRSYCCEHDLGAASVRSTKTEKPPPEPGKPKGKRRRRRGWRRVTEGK
Assay: Inhibition of recombinant human N-terminal GST-tagged NSD2 CD (941 to 1240 residues) expressed in Escherichia coli using SAM as substrate in presence of nucleosomes by AlphaLISA method

Row | Compound | IC50
2 | CN1CCC(CNS(=O)(=O)c2cccc3c(N)cccc23)CC1 | 3.4 µM
3 | Nc1cccc2c(C(=O)NCc3ccccc3)cccc12 | 19.4 µM
4 | Nc1cccc2c(S(=O)(=O)NCC3CCCCC3)cccc12 | > 20 µM
5 | O=C(c1ccccc1)N1CCC(Nc2cccc3c(S(=O)(=O)NCc4ccccc4)cccc23)CC1 | 18 µM
6 | CN1CCC(Nc2cccc3c(S(=O)(=O)NCc4ccccc4)cccc23)CC1 | 6 µM
7 | O=S(=O)(NCc1ccccc1)c1cccc2c(NC3CCCCC3)cccc12 | 12.6 µM
8 | O=C(OCc1ccccc1)N1CCC(Nc2cccc3c(S(=O)(=O)NCc4ccccc4)cccc23)CC1 | > 20 µM
9 | O=S(=O)(NCc1ccccc1)c1cccc2ccccc12 | > 20 µM
10 | O=S(=O)(NCc1ccccc1)c1cccc2c(NCC3CC3)cccc12 | 10.7 µM
11 | O=C(NCc1ccccc1)c1cccc2[nH]ccc12 | > 20 µM
12 | O=C(NCc1ccccc1)c1cccc2ncccc12 | 19.6 µM
13 | CC(C)(C)NS(=O)(=O)c1cccc2c(N)cccc12 | 18.4 µM
14 | Nc1ccc2cc(S(=O)(=O)NCc3ccccc3)ccc2c1 | > 20 µM
15 | Nc1cccc2c(S(=O)(=O)N3CCC(Cc4ccccc4)CC3)cccc12 | > 20 µM
16 | CS(=O)(=O)N1CCC(Nc2cccc3c(S(=O)(=O)NCc4ccccc4)cccc23)CC1 | 11.8 µM
17 | O=S(=O)(NCc1ccccc1)c1cccc2c(NC3CCNCC3)cccc12 | 10.2 µM
18 | CCN1CCC(Nc2cccc3c(S(=O)(=O)NCc4ccccc4)cccc23)CC1 | 3.2 µM
19 | CC(=O)N1CCC(Nc2cccc3c(S(=O)(=O)NCc4ccccc4)cccc23)CC1 | 7.5 µM

Further lines, results first:

Row | IC50 | Compound
20 | 22.7 µM | Nc1cccc2c(S(=O)(=O)NCc3cccs3)cccc12
21 | > 20 µM | Nc1ccc(S(=O)(=O)NCc2ccccc2)c2ccccc12
22 | 19.9 µM | Nc1cccc2c(S(=O)(=O)NC3CC3c3ccccc3)cccc12 (trans isomer)
23 | > 20 µM | CN(Cc1ccccc1)S(=O)(=O)c1cccc2c(N)cccc12
24 | > 20 µM | Nc1cccc2c(S(=O)(=O)NCC3CCCNC3)cccc12 (centres undefined)
25 | > 20 µM | Nc1cccc2cc(S(=O)(=O)NCc3ccccc3)ccc12
26 | > 20 µM | Nc1cccc2c(S(=O)(=O)Nc3ccccc3)cccc12
27 | 15.4 µM | Nc1cccc2c(S(=O)(=O)NCCc3ccccc3)cccc12
28 | 14.1 µM | Nc1cccc2c(S(=O)(=O)NCc3ccc(F)cc3)cccc12
29 | 10.4 µM | Nc1cccc2c(S(=O)(=O)NCc3ccc(C(F)(F)F)cc3)cccc12
30 | 26 µM | Nc1cccc2c(S(=O)(=O)NCc3ccncc3)cccc12
31 | > 20 µM | CC(=O)Nc1cccc2c(S(=O)(=O)NCc3ccccc3)cccc12
32 | > 20 µM | Nc1cccc2c(S(=O)(=O)NCc3ccc(C(=O)O)cc3)cccc12
33 | > 20 µM | Nc1ccc2c(S(=O)(=O)NCc3ccccc3)cccc2c1
34 | 13.5 µM | COc1ccc(CNS(=O)(=O)c2cccc3c(N)cccc23)cc1
35 | 18.1 µM | N#Cc1ccc(CNS(=O)(=O)c2cccc3c(N)cccc23)cc1
36 | > 20 µM | N#Cc1cccc(CNS(=O)(=O)c2cccc3c(N)cccc23)c1
37 | > 20 µM | CN(C)c1cccc2c(S(=O)(=O)NCc3ccccc3)cccc12

Target: T1, Histone-lysine N-methyltransferase NSD2
Assay: Inhibition of NSD2 (953 to 1240 residues) (unknown origin) using SAM as substrate in presence of nucleosome by AlphaScreen assay

Row | IC50 | Compound
38 | 3.3 µM | CCC(C)NC(CC[C@H](N)C(=O)O)C[C@H]1O[C@@H](n2cnc3c(N)ncnc32)[C@H](O)[C@@H]1O (some centres undefined)

Target: T1, Histone-lysine N-methyltransferase NSD2
Assay: Inhibition of human NSD2-SET using histone H3.1 as substrate incubated for 1 hr by Western blot analysis

Row | IC50 | Compound
39 | 41 µM | COc1cc2nc(N3CCN(C)CC3)nc(NC3CCN(Cc4ccccc4)CC3)c2cc1OC

Target: T1, Histone-lysine N-methyltransferase NSD2
Assay: Inhibition of NSD2 (unknown origin)

Row | IC50 | Compound
40 | 26 µM | Nc1ncnc2c1ncn2[C@@H]1O[C@H](CC(N)CC[C@H](N)C(=O)O)[C@@H](O)[C@H]1O (some centres undefined)
41 | 3 µM | NNc1nc2ccccc2nc1S
42 | 11.2 µM | O=C1O[C@@H](C(=O)N2CCN(Cc3nc4sc5c(c4c(=O)[nH]3)CCCC5)CC2)Cc2ccccc21

Target: Histone-lysine N-methyltransferase, H3 lysine-36 specific (Homo sapiens, UniProt Q96L73)
Sequence (Q96L73 whole entry): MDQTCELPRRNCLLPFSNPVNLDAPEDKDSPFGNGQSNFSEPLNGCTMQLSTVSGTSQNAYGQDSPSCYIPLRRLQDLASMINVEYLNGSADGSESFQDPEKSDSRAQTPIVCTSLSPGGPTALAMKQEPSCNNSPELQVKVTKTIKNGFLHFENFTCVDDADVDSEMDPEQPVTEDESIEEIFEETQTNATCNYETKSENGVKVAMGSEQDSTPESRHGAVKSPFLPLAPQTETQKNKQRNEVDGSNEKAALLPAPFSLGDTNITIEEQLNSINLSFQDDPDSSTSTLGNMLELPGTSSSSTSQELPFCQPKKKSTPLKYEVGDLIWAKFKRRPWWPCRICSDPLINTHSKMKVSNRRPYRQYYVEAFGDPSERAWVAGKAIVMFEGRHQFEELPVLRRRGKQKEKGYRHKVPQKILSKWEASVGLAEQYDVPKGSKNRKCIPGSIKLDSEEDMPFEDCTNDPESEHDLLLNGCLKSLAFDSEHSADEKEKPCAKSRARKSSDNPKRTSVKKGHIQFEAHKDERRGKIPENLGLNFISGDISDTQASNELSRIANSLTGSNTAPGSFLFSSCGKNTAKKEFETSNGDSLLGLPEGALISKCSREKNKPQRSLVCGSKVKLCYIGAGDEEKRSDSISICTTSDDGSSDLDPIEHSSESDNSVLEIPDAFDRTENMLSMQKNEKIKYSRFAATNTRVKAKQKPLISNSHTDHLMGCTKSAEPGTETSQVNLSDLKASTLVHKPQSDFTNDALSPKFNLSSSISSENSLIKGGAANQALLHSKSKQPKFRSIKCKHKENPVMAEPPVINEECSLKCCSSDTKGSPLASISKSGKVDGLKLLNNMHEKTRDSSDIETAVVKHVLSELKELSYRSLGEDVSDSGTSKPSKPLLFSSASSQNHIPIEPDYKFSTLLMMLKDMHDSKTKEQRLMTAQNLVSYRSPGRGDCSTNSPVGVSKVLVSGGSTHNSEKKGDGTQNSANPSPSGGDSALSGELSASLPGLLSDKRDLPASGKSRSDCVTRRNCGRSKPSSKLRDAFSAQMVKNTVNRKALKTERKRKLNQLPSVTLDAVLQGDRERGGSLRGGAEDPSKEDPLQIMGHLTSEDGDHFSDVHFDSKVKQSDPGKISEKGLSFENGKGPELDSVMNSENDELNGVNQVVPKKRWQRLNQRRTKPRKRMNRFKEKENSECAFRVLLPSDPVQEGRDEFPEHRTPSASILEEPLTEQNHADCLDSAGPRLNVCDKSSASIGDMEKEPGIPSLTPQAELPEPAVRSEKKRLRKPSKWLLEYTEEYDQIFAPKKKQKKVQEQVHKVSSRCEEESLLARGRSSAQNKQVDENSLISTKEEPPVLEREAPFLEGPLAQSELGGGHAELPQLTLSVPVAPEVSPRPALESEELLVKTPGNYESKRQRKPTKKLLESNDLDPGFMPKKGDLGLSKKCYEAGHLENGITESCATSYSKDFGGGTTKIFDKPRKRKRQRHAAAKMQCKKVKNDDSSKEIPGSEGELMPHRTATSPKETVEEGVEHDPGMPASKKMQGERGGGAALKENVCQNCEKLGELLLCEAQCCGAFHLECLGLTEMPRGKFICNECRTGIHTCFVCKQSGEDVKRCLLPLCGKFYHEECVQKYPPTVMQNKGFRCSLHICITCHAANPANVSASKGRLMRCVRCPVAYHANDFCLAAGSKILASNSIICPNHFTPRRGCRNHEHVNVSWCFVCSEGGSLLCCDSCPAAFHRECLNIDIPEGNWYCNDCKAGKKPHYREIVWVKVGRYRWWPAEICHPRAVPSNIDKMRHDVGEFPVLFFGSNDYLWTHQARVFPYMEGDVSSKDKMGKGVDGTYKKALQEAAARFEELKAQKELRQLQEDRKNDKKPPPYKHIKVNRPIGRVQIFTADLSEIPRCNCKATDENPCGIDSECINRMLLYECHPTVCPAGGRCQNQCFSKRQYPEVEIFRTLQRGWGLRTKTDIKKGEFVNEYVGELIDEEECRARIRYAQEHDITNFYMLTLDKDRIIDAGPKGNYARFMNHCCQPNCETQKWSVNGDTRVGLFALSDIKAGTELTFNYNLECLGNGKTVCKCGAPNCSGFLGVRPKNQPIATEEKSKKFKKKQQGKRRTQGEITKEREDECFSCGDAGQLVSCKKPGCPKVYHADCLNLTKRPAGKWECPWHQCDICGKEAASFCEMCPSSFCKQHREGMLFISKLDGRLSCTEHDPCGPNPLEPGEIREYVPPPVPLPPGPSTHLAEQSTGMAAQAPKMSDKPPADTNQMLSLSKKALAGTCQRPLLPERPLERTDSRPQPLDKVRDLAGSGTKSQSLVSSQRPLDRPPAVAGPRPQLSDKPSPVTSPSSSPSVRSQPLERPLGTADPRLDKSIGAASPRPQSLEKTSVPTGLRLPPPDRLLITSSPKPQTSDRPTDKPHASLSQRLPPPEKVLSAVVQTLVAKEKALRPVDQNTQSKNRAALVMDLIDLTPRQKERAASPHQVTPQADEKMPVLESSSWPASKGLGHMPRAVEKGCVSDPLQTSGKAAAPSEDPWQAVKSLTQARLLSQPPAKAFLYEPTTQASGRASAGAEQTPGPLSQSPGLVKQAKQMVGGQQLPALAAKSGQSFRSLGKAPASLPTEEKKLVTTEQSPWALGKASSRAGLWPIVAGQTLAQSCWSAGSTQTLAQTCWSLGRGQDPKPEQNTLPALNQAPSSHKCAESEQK
Assay: Inhibition of human NSD1-SET using histone H3.1 as substrate incubated for 1 hr by Western blot analysis

Row | IC50 | Compound
43 | 112 µM | COc1cc2nc(N3CCN(C)CC3)nc(NC3CCN(Cc4ccccc4)CC3)c2cc1OC

Target: T1, Histone-lysine N-methyltransferase NSD2
Assay: Binding affinity to MMSET (973 to 1203 residues) (unknown origin) expressed in Escherichia coli BL21 DE3 by ITC analysis

Row | Kd | Compound
44 | 1.6 µM | CCC(C)NC(CC[C@H](N)C(=O)O)C[C@H]1O[C@@H](n2cnc3c(N)ncnc32)[C@H](O)[C@@H]1O (some centres undefined)
